Measured values reported in patent publication US8754257B2, “Pharmaceutical-grade ferric organic compounds, uses thereof and methods of making same” (GloboAsia, LLC, priority 2003, dated 2014).
“Also recorded” adds a separate entry of the source.

How the values were obtained:
[1] = tested on: patients with kidney disease; conditions: patients with kidney disease receiving doses of ferric citrate; cited from earlier work
[2] = tested on: patients with End Stage Renal Disease (ESRD); conditions: cited from earlier work
[3] = Intrinsic dissolution rate of ferric citrate; assay type: physicochemical; conditions: for Intrinsic Dissolution Rates: 37° C., solutions of pH 8
Excerpt: The intrinsic dissolution rate is defined as the dissolution rate of pure substances under the condition of constant surface area. […] The measured intrinsic dissolution rate is dependent on these solid-state properties and is typically determined by exposing a constant surface area of a material to an appropriate dissolution medium while maintaining constant temperature, stirring rate, and pH.

[4] = BET active surface area measurement; assay type: physicochemical; conditions: for BET Active Surface Area: Table 2, one value per pair of samples -1/-2
Experimental: The analysis of active surface area is based on BET theory which describes the phenomenon of mass and energy interaction and phase changes during as adsorption onto solid surfaces and in pore spaces. In BET active surface area measurement, the volume of a monolayer of gas is determined which allows the surface area of the sample to be determined using the area occupied by a single layer of adsorbed gas molecule.

[5] = tested on: patients; experiment: Clinical study of pharmaceutical-grade ferric citrate in patients in vivo; design: species or system human
Experimental: Ferric citrate is supplied in 500 mg capsules, whereas the placebo will be provided in identical-looking capsules (indistinguishable from those containing the active drug); the placebo capsules will contain sorbitol and colorant to match the powder color of the active capsules. The placebo capsule shells will be identical to the active capsule shells.
An non-limiting example of a dosing regimen is provided below. This is not meant to limit the invention as to how an effective amount of ferric citrate is selected, or the form in which it is provided or the frequency of administering the composition per day. The following merely illustrates how ferric citrate and placebo may be administered; e.g., as 500 mg capsules of identical appearance. All patients may receive (in a blinded fashion) 4 capsules with each of three meals, on a daily basis, for 28 days. Patients will be instructed to take the study medication within 10 minutes of finishing their meals (breakfast, lunch, and dinner).
• 4 placebo capsules, with breakfast. • 4 placebo capsules, with lunch. • 4 placebo capsules with dinner Ferric Citrate 2 g Per Day Arm of the Study • 1 ferric citrate capsule and 3 placebo capsules with breakfast • 1 ferric citrate capsule and 3 placebo capsules with lunch • 2 ferric citrate capsules and 2 placebo capsules with dinner Ferric Citrate 4 g Per Day Arm • 2 ferric citrate capsules and 2 placebo capsules with breakfast • 3 ferric citrate capsule and 1 placebo capsule with lunch • 3 ferric citrate capsules and 1 placebo capsule with dinner Ferric Citrate 6 g Per Day Arm • 4 ferric citrate capsules with breakfast • 4 ferric citrate capsules with lunch • 4 ferric citrate capsules with dinner B. Clinical Schedule and Assessments Duration of Study Treatment
Each patient's participation in the trial lasts for up to 8 weeks: the screening period (approximately 1-2 weeks), a 1-2 week washout, and 4 weeks of treatment with study medication.
The following procedures will be performed at the first screening visit: • 1. Medical history, including concomitant medications. • 2. Demographic data • 3. Physical examination, including height, weight, and vital signs. • 4. Dietary interview, using 24 hour recall method, to assess dietary intake of calcium and phosphorous, three times during screening period, to include one dialysis day, one non-dialysis day, and one weekend day. Note: Dietary interview may be also performed, in part or in whole, during the washout period. • 5. […]

In the case of ferric citrate, the “calcium deposits on the eye” value [1] is listed as “reversal of calcium deposits on the eye”, the GI symptoms ([2]; 3 g daily) is listed as “mild, hut tolerable GI symptoms” and the “change in serum P04” value ([2]; 3 g daily) is listed as “significant decrease in serum P04”. The “efficacy in reducing serum P04 compared with calcium carbonate (3 g daily)” value [2] was “not as effective as calcium carbonate”.

With ferric citrate [PAN031203A] the “Intrinsic Dissolution Rates” value [3] was 3.82 mg/cm2/min.

With ferric citrate [PAN031203B] the “Intrinsic Dissolution Rates” value [3] was 4.00 mg/cm2/min.

For ferric citrate [PAN031203C], the “Intrinsic Dissolution Rates” value [3] was 2.68 mg/cm2/min.

With ferric citrate [PAN031203D] the “Intrinsic Dissolution Rates” value [3] was 2.95 mg/cm2/min.

For ferric citrate [PAN031203E], the “Intrinsic Dissolution Rates” value [3] was 3.13 mg/cm2/min.

For “ferric citrate [RFS-12-1, reference compound]”, the “BET Active Surface Area” value [4] was 0.61.

In the case of ferric citrate [STM-134-1], the “BET Active Surface Area” value [4] was 16.17.

In the case of ferric citrate [STM-134], the “Intrinsic Dissolution Rates” value [3] was 1.88 mg/cm2/min.

With ferric citrate [STM-182-1] the “BET Active Surface Area” value [4] was 19.85.

With “ferric citrate [ferric citrate of the present invention]” the “BET active surface area relative to commercially available ferric citrate” value [4] was “at least 16 times”, the “adverse side effects compared with placebo” value ([5]; FIG. 12) was “not statistically different from chose associated with the placebo” and the “adverse side effects / safety profile compared with chemical grade ferric citrate” value ([5]; oral capsules, FIG. 12, listed as pharmaceutical grade ferric citrate) was “less adverse clinical effects; also recorded: significantly more desirable safety profile”. For the same substance, the “adverse side effects / safety profile compared with chemical grade ferric citrate” value ([5]; oral capsules, FIG. 12, listed as pharmaceutical-grade ferric citrate) was “less adverse side effects than chemical grade ferric citrate”, the “efficacy compared with chemical grade ferric citrate” value ([5]; oral capsules, FIG. 13, listed as pharmaceutical-grade ferric citrate) was “approximately equal so that of chemical grade ferric citrate” and the “dissolution rate compared with commercially available ferric citrate” value ([3]; experiment simulating the alkaline condition in the small intestine) was “better dissolution rate than the commercially available ferric citrate”. The “intrinsic dissolution rate relative to commercially available ferric citrate” value ([3]; pH 8.0) was 3.08 times.
